In ChEMBL document CHEMBL1201862, “PubChem BioAssay data set” (2004):
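Compound exposure: 48 hours, 5 concentrations, 96-well plates. The concentration for 50% growth inhibition is given as GI50.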 Activity calls are given as the source filed them. Cut-off read from the data, not from the text of the source: active = GI50 up to about 1.1 µM and inactive = higher.

What was measured:
Assay in all cases: growth of human tumour cells (NCI), 48 h
COLO 205 = system: COLO 205
HOP-92 = system: HOP-92
BT-549 = system: BT-549
UO-31 = system: UO-31
CCRF-CEM = system: CCRF-CEM
SK-OV-3 = system: SK-OV-3
MDA-MB-231 = system: MDA-MB-231
SW-620 = system: SW-620
SK-MEL-28 = system: SK-MEL-28
HCC 2998 = system: HCC 2998
Malme-3M = system: Malme-3M
U-251 = system: U-251
HL-60 = system: HL-60
UACC-62 = system: UACC-62
TK-10 = system: TK-10
SNB-19 = system: SNB-19
NCI-H23 = system: NCI-H23
KM12 = system: KM12
NCI-H226 = system: NCI-H226
SNB-75 = system: SNB-75
Hs-578T = system: Hs-578T
NCI-H522 = system: NCI-H522
IGROV-1 = system: IGROV-1
PC-3 = system: PC-3
DU-145 = system: DU-145
HT-29 = system: HT-29
SN12C = system: SN12C
786-0 = system: 786-0
SF-539 = system: SF-539
SK-MEL-5 = system: SK-MEL-5
T47D = system: T47D
OVCAR-5 = system: OVCAR-5
EKVX = system: EKVX
M14 = system: M14
ACHN = system: ACHN
MDA-N = system: MDA-N
RXF 393 = system: RXF 393
MDA-MB-435 = system: MDA-MB-435
A498 = system: A498
HOP-62 = system: HOP-62
SF-268 = system: SF-268
MOLT-4 = system: MOLT-4
HCT-116 = system: HCT-116
NCI-H460 = system: NCI-H460
K562 = system: K562
CAKI-1 = system: CAKI-1
SF-295 = system: SF-295
MCF7 = system: MCF7
SR = system: SR
A549 = system: A549
OVCAR-3 = system: OVCAR-3
OVCAR-4 = system: OVCAR-4
OVCAR-8 = system: OVCAR-8
UACC-257 = system: UACC-257

Measured: GI50

CC(=O)NC1(C)C(C)C2CC1C(C)C2(C)C (centres undefined)
inactive: COLO 205 > 100 µM | HOP-92 > 100 µM | BT-549 > 100 µM | UO-31 > 100 µM | CCRF-CEM > 100 µM | SK-OV-3 > 100 µM | MDA-MB-231 > 100 µM | SW-620 > 100 µM | SK-MEL-28 > 100 µM | HCC 2998 > 100 µM | Malme-3M > 100 µM | U-251 > 100 µM | HL-60 > 100 µM | UACC-62 > 100 µM | TK-10 > 100 µM | SNB-19 > 100 µM | NCI-H23 > 100 µM | KM12 > 100 µM | NCI-H226 > 100 µM | SNB-75 > 100 µM | Hs-578T > 100 µM | NCI-H522 > 100 µM | IGROV-1 > 100 µM | PC-3 > 100 µM | DU-145 > 100 µM | HT-29 > 100 µM | SN12C > 100 µM | 786-0 > 100 µM | SF-539 > 100 µM | SK-MEL-5 > 100 µM | T47D > 100 µM | OVCAR-5 > 100 µM | EKVX > 100 µM | M14 > 100 µM | ACHN > 100 µM | MDA-N > 100 µM | RXF 393 > 100 µM | MDA-MB-435 > 100 µM | A498 > 100 µM | HOP-62 > 100 µM | SF-268 > 100 µM | MOLT-4 > 100 µM | HCT-116 > 100 µM | NCI-H460 > 100 µM | K562 > 100 µM | CAKI-1 > 100 µM | SF-295 > 100 µM | MCF7 > 100 µM | SR > 100 µM | A549 > 100 µM | OVCAR-3 > 100 µM | OVCAR-4 > 100 µM | OVCAR-8 > 100 µM | UACC-257 > 100 µM
